{"source": "ChEMBL document CHEMBL5728984", "about": "“Tricyclic inhibitors of poly(ADP-ribose)polymerase” (2022)", "note": "pIC50: −log10 of the molar value.", "data": [{"target": "Poly [ADP-ribose] polymerase 1 (Homo sapiens, UniProt P09874)", "sequence (P09874 whole entry)": "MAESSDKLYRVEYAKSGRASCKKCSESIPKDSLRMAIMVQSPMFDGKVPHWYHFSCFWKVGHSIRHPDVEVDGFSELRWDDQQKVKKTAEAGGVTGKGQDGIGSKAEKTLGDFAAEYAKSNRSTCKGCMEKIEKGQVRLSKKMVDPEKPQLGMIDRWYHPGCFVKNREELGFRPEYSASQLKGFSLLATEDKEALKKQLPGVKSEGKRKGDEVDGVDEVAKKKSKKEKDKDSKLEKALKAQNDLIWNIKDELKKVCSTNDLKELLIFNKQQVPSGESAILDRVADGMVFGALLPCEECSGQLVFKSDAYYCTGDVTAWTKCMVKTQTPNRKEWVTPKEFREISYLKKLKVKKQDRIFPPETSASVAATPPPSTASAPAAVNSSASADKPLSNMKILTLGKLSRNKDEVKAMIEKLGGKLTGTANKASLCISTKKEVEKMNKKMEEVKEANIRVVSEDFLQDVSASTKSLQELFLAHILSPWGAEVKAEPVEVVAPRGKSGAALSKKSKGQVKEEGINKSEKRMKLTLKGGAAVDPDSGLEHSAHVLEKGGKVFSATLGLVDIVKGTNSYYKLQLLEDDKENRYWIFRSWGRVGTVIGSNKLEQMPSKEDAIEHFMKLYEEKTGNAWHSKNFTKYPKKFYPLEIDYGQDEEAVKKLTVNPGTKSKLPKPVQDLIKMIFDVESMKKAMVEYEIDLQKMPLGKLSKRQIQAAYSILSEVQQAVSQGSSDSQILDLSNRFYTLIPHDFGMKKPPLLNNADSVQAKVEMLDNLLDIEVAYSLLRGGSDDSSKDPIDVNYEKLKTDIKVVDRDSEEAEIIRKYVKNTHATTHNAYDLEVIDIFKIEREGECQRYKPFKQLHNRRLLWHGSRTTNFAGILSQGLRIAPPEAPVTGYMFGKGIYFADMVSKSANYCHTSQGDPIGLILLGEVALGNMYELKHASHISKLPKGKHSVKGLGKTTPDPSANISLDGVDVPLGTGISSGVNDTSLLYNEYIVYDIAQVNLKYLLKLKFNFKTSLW", "test": "Enzyme Assay: Inhibition of PARP-1 enzymatic activities was measured using an HT Universal Colorimetric PARP Assay Kit (Trevigen, catalogue #4677-096-K) following the standard procedures. Serial dilutions of PARP compounds were added to appropriate wells. The compound was incubated with PARP enzyme at RT for 10 min, and the reaction was initiated by addition of the PARP substrate cocktail, Each concentration of compound was tested in triplicate wells. After 15 min reaction, the reaction was stopped, and the Strep-HRP was added into each well and incubated for 1 h at RT. After addition of TACS-Sapphire colorimetric substrate and incubated in dark for 15 min, the OD450 was read out with an EnVision instrument. IC50 values (the concentration at which 50% of the enzyme activity is inhibited) were calculated, which are determined over a range of different concentrations, normally from 10 uM to 0.1 nM.", "values": [{"smiles": "CC(C)(C)C(=O)N1CCP(=O)(c2cc(Cc3n[nH]c(=O)c4ccccc34)ccc2F)CC1", "pIC50": "> 7.00"}, {"smiles": "CC(C)P1(=O)CCN(C(=O)c2cc(Cc3n[nH]c(=O)c4ccccc34)ccc2F)CC1", "pIC50": "> 7.00"}, {"smiles": "CCP1(=O)CCN(C(=O)c2cc(Cc3n[nH]c(=O)c4ccccc34)ccc2F)CC1", "pIC50": "> 7.00"}, {"smiles": "O=c1[nH]nc(Cc2ccc(F)c(P3(=O)CCN(c4ncccn4)CC3)c2)c2ccccc12", "pIC50": "> 7.00"}, {"smiles": "CCOP1(=O)CCN(C(=O)c2cc(Cc3n[nH]c(=O)c4ccccc34)ccc2F)CC1", "pIC50": "> 7.00"}, {"smiles": "CC(C)CN1CCP(=O)(c2cc(Cc3n[nH]c(=O)c4ccccc34)ccc2F)CC1", "pIC50": "> 7.00"}, {"smiles": "N#C/N=C(\\N1CCC1)N1CCP(=O)(c2cc(Cc3n[nH]c(=O)c4ccccc34)ccc2F)CC1", "pIC50": "> 7.00"}]}]}
